In PubChem BioAssay AID1963427 (Molecular Pharmacology Branch, DTP, NCI, 2024):

System: 317291-083-R-J1-PDC complex spheroid growth
Assay: Anticancer human tumor 317291-083-R-J1-PDC patient-derived soft tissue sarcoma cell line growth inhibition [Asc]
Details: for IC50: curve of first compound; for viability, T/C: stronger effect = lower value
How it was run: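 Complex spheroids combining tumor cells with HUVEC endothelial cells and human MSCs, at 37 degrees C, 5% CO2; agents tested alone or combined, half-log dilutions from at or near clinical Cmax, or 10 microM if Cmax unknown.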
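Note: compound exposure lasted seven days after spheroids formed for three days.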
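Throughout, for viability, T/C: 100% = DMSO vehicle control wells.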

COc1c(OCCCN2CCOCC2)ccc2c3n(c(=NC(=O)c4cnc(N)nc4)nc12)CCN3 + CCN1C(C(=O)NC23CCC(C(=O)O)(CC2)CC3)C(c2cccc(Cl)c2F)C2(C(=O)Nc3cc(Cl)ccc32)C12CCCCC2
IC50 (second compound 0.00949 µM): 177 nM | IC50 (second compound 0.03 µM): 182 nM | IC50 (second compound 0.0949 µM): 213 nM | IC50 (second compound 0.3 µM): 173 nM | IC50 (second compound 0.949 µM): 180 nM | IC50 (second compound 3 µM): 127 nM | viability, T/C (second compound 0.00949 µM, first compound 0.00316 µM): 95.6% | viability, T/C (second compound 0.00949 µM, first compound 0.01 µM): 85.8% | viability, T/C (second compound 0.00949 µM, first compound 0.0316 µM): 85% | viability, T/C (second compound 0.00949 µM, first compound 0.1 µM): 64.9% | viability, T/C (second compound 0.00949 µM, first compound 0.316 µM): 34.6% | viability, T/C (second compound 0.00949 µM, first compound 1 µM): 16.3% | viability, T/C (second compound 0.03 µM, first compound 0.00316 µM): 95.6% | viability, T/C (second compound 0.03 µM, first compound 0.01 µM): 79.2% | viability, T/C (second compound 0.03 µM, first compound 0.0316 µM): 79.5% | viability, T/C (second compound 0.03 µM, first compound 0.1 µM): 56.2% | viability, T/C (second compound 0.03 µM, first compound 0.316 µM): 43.8% | viability, T/C (second compound 0.03 µM, first compound 1 µM): 13.9% | viability, T/C (second compound 0.0949 µM, first compound 0.00316 µM): 93.7% | viability, T/C (second compound 0.0949 µM, first compound 0.01 µM): 83.4% | viability, T/C (second compound 0.0949 µM, first compound 0.0316 µM): 81.3% | viability, T/C (second compound 0.0949 µM, first compound 0.1 µM): 79.4% | viability, T/C (second compound 0.0949 µM, first compound 0.316 µM): 34.8% | viability, T/C (second compound 0.0949 µM, first compound 1 µM): 16.9% | viability, T/C (second compound 0.3 µM, first compound 0.00316 µM): 120% | viability, T/C (second compound 0.3 µM, first compound 0.01 µM): 76.9% | viability, T/C (second compound 0.3 µM, first compound 0.0316 µM): 84.7% | viability, T/C (second compound 0.3 µM, first compound 0.1 µM): 67% | viability, T/C (second compound 0.3 µM, first compound 0.316 µM): 37.1% | viability, T/C (second compound 0.3 µM, first compound 1 µM): 17.4% | viability, T/C (second compound 0.949 µM, first compound 0.00316 µM): 85.1% | viability, T/C (second compound 0.949 µM, first compound 0.01 µM): 74% | viability, T/C (second compound 0.949 µM, first compound 0.0316 µM): 86.8% | viability, T/C (second compound 0.949 µM, first compound 0.1 µM): 58.5% | viability, T/C (second compound 0.949 µM, first compound 0.316 µM): 39.2% | viability, T/C (second compound 0.949 µM, first compound 1 µM): 15.4% | viability, T/C (second compound 3 µM, first compound 0.00316 µM): 88.2% | viability, T/C (second compound 3 µM, first compound 0.01 µM): 71% | viability, T/C (second compound 3 µM, first compound 0.0316 µM): 73.3% | viability, T/C (second compound 3 µM, first compound 0.1 µM): 55% | viability, T/C (second compound 3 µM, first compound 0.316 µM): 32.8% | viability, T/C (second compound 3 µM, first compound 1 µM): 15.2%

C=C(F)C(=O)N1CCN(c2nc(OCC3CCCN3C)nc3c2CCN(c2cccc4cccc(Cl)c24)C3)CC1CC#N (centres undefined) + CNC(C)C(=O)NC1CN(S(=O)(=O)c2cccc(S(=O)(=O)N3CCC4CCC(C(=O)NC(c5ccccc5)c5ccccc5)N4C(=O)C(NC(=O)C(C)NC)C3)c2)CCC2CCC(C(=O)NC(c3ccccc3)c3ccccc3)N2C1=O
IC50 (second compound 0.00316 µM): 948 nM | IC50 (second compound 0.01 µM): 1030 nM | IC50 (second compound 0.0316 µM): 559 nM | IC50 (second compound 0.1 µM): 71 nM | IC50 (second compound 0.316 µM): < 31.6 nM | IC50 (second compound 1 µM): < 31.6 nM | viability, T/C (second compound 0.00316 µM, first compound 0.0316 µM): 90.9% | viability, T/C (second compound 0.00316 µM, first compound 0.1 µM): 69.3% | viability, T/C (second compound 0.00316 µM, first compound 0.316 µM): 67% | viability, T/C (second compound 0.00316 µM, first compound 1 µM): 54.3% | viability, T/C (second compound 0.00316 µM, first compound 3.16 µM): 25% | viability, T/C (second compound 0.00316 µM, first compound 10 µM): 0.13% | viability, T/C (second compound 0.01 µM, first compound 0.0316 µM): 66.7% | viability, T/C (second compound 0.01 µM, first compound 0.1 µM): 61.8% | viability, T/C (second compound 0.01 µM, first compound 0.316 µM): 68.5% | viability, T/C (second compound 0.01 µM, first compound 1 µM): 50.4% | viability, T/C (second compound 0.01 µM, first compound 3.16 µM): 9.6% | viability, T/C (second compound 0.01 µM, first compound 10 µM): 0.1% | viability, T/C (second compound 0.0316 µM, first compound 0.0316 µM): 62% | viability, T/C (second compound 0.0316 µM, first compound 0.1 µM): 54.2% | viability, T/C (second compound 0.0316 µM, first compound 0.316 µM): 46.8% | viability, T/C (second compound 0.0316 µM, first compound 1 µM): 46.6% | viability, T/C (second compound 0.0316 µM, first compound 3.16 µM): 8.82% | viability, T/C (second compound 0.0316 µM, first compound 10 µM): 0.1% | viability, T/C (second compound 0.1 µM, first compound 0.0316 µM): 59.1% | viability, T/C (second compound 0.1 µM, first compound 0.1 µM): 39.9% | viability, T/C (second compound 0.1 µM, first compound 0.316 µM): 38.5% | viability, T/C (second compound 0.1 µM, first compound 1 µM): 38.2% | viability, T/C (second compound 0.1 µM, first compound 3.16 µM): 11.7% | viability, T/C (second compound 0.1 µM, first compound 10 µM): 0.1% | viability, T/C (second compound 0.316 µM, first compound 0.0316 µM): 38.1% | viability, T/C (second compound 0.316 µM, first compound 0.1 µM): 29.4% | viability, T/C (second compound 0.316 µM, first compound 0.316 µM): 35% | viability, T/C (second compound 0.316 µM, first compound 1 µM): 29.3% | viability, T/C (second compound 0.316 µM, first compound 3.16 µM): 13.1% | viability, T/C (second compound 0.316 µM, first compound 10 µM): 0.44% | viability, T/C (second compound 1 µM, first compound 0.0316 µM): 37.9% | viability, T/C (second compound 1 µM, first compound 0.1 µM): 32.2% | viability, T/C (second compound 1 µM, first compound 0.316 µM): 32% | viability, T/C (second compound 1 µM, first compound 1 µM): 19.4% | viability, T/C (second compound 1 µM, first compound 3.16 µM): 9.16% | viability, T/C (second compound 1 µM, first compound 10 µM): 0.2%
